ChEMBL document CHEMBL3045398, “Fungicidal activities of cyflufenamid against various plant-pathogenic fungi” (J Pestic Sci, 2006)
Active and inactive are the calls of the source. No cut-off for these calls is given here.

How the values were obtained:
[1] = system: Helicobasidium mompa; assay: Fungicidal activity against Helicobasidium mompa assessed as inhibition of mycelial growth measured after 3 to 20 days by agar dilution method; assay type: functional, organism-based
[2] = system: Erysiphe necator; assay: Fungicidal activity against Erysiphe necator in grape assessed as powdery mildew disease control measured after 7 to 10 days by pot test; assay type: functional
[3] = system: Podosphaera leucotricha; assay: Fungicidal activity against Podosphaera leucotricha in apple assessed as powdery mildew disease control measured after 7 to 10 days by pot test; assay type: functional
[4] = system: Blumeria graminis f. sp. tritici; assay: Fungicidal activity against Blumeria graminis f. sp. tritici in wheat assessed as powdery mildew disease control measured after 7 to 10 days by pot test; assay type: functional
[5] = system: Botrytis cinerea; assay: Fungicidal activity against Botryotinia fuckeliana on kidney bean (Phaseolus vulgaris, cv. Nagauzura) assessed as grey mold disease control at 200 ppm measured after 5 to 10 days; assay type: functional
[6] = system: Taphrina deformans; assay: Fungicidal activity against Taphrina deformans assessed as inhibition of mycelial growth measured after 3 to 20 days by agar dilution method; assay type: functional, organism-based
[7] = system: Pestalotia longiseta; assay: Fungicidal activity against Pestalotia longiseta assessed as inhibition of mycelial growth measured after 3 to 20 days by agar dilution method; assay type: functional, organism-based, Pestalotiopsis longiseta
[8] = system: Alternaria alternata; assay: Fungicidal activity against Alternaria alternata apple pathotype assessed as inhibition of mycelial growth measured after 3 to 20 days by agar dilution method; assay type: functional, organism-based
[9] = system: Blumeria graminis f. sp. tritici; assay: Fungicidal activity against Blumeria graminis f. sp. tritici on wheat leaves assessed as rate of appressorium formation measured at 12.5 ppm after 3 hr (reference value: 1.7 +/- 1.4%); assay type: functional
[10] = system: Colletotrichum gloeosporioides; assay: Fungicidal activity against Glomerella cingulata assessed as inhibition of mycelial growth measured after 3 to 20 days by agar dilution method; assay type: functional, organism-based
[11] = system: Phytophthora infestans; assay: Fungicidal activity against Phytophthora infestans on tomato (Lycopersicon esculentum, cv. Regina) assessed as late blight disease control at 200 ppm measured after 5 to 10 days; assay type: functional
[12] = system: Blumeria graminis f. sp. tritici; assay: Fungicidal activity against Blumeria graminis f. sp. tritici on wheat leaves assessed as colony formation measured at 0.2 ppm; assay type: functional
[13] = system: Podosphaera pannosa; assay: Fungicidal activity against Podosphaera pannosa in rose assessed as powdery mildew disease control measured after 7 to 10 days by pot test; assay type: functional
[14] = system: Pythium aphanidermatum; assay: Fungicidal activity against Pythium aphanidermatum assessed as inhibition of mycelial growth measured after 3 to 20 days by agar dilution method; assay type: functional, organism-based
[15] = system: Discula theae-sinensis; assay: Fungicidal activity against Discula theae-sinensis assessed as inhibition of mycelial growth measured after 3 to 20 days by agar dilution method; assay type: functional, organism-based, Sinodiscula theae-sinensis
[16] = system: Cercospora kikuchii; assay: Fungicidal activity against Cercospora kikuchii assessed as inhibition of mycelial growth measured after 3 to 20 days by agar dilution method; assay type: functional, organism-based
[17] = system: Blumeria graminis f. sp. tritici; assay: Fungicidal activity against Blumeria graminis f. sp. tritici on wheat leaves assessed as rate of appressorium formation measured at 3.1 ppm after 168 hr; assay type: functional
[18] = system: Fusarium graminearum; assay: Fungicidal activity against Fusarium graminearum assessed as inhibition of mycelial growth measured after 3 to 20 days by agar dilution method; assay type: functional, organism-based
[19] = system: Blumeria graminis f. sp. tritici; assay: Fungicidal activity against Blumeria graminis f. sp. tritici on wheat leaves assessed as colony formation measured at 0.8 ppm; assay type: functional
[20] = system: Blumeria graminis f. sp. tritici; assay: Fungicidal activity against Blumeria graminis f. sp. tritici on wheat leaves assessed as rate of appressorium formation measured at 0.2 ppm after 76 hr; assay type: functional
[21] = system: Leveillula taurica; assay: Fungicidal activity against Leveillula taurica in sweet pepper assessed as powdery mildew disease control measured after 7 to 10 days by pot test; assay type: functional; conditions: Phyllactinia taurica
[22] = system: Blumeria graminis f. sp. tritici; assay: Fungicidal activity against Blumeria graminis f. sp. tritici on wheat (Triticum aestivum, cv. Chihoku) assessed as powdery mildew disease control at 0.01 ppm measured after 5 to 10 days; assay type: functional
[23] = system: Blumeria graminis f. sp. tritici; assay: Fungicidal activity against Blumeria graminis f. sp. tritici on wheat leaves assessed as spore formation measured at 3.1 ppm; assay type: functional
[24] = system: Blumeria graminis f. sp. tritici; assay: Fungicidal activity against Blumeria graminis f. sp. tritici on wheat leaves assessed as rate of appressorium formation measured at 3.1 ppm after 76 hr; assay type: functional
[25] = system: Blumeria graminis f. sp. tritici; assay: Fungicidal activity against Blumeria graminis f. sp. tritici on wheat leaves assessed as rate of appressorium formation measured at 0.8 ppm after 168 hr; assay type: functional
[26] = system: Blumeria graminis f. sp. tritici; assay: Fungicidal activity against Blumeria graminis f. sp. tritici on wheat leaves assessed as rate of spore germination measured at 12.5 ppm after 12 hr (reference value: 67.4 +/- 8.6%); assay type: functional
[27] = system: Monilinia fructicola; assay: Fungicidal activity against Monilinia fructicola assessed as rounded hyphae and various size vessicles measured by Transmission electron microscopy; assay type: functional, organism-based
[28] = system: Verticillium dahliae; assay: Fungicidal activity against Verticillium dahliae assessed as inhibition of mycelial growth measured after 3 to 20 days by agar dilution method; assay type: functional, organism-based
[29] = system: Blumeria graminis f. sp. tritici; assay: Fungicidal activity against Blumeria graminis f. sp. tritici on wheat (Triticum aestivum, cv. Chihoku) assessed as powdery mildew disease control at 3.1 ppm measured after 5 to 10 days; assay type: functional
[30] = system: Monilinia fructicola; assay: Fungicidal activity against Monilinia fructicola assessed as large septa measured by Transmission electron microscopy; assay type: functional, organism-based
[31] = system: Sclerotinia sclerotiorum; assay: Fungicidal activity against Sclerotinia sclerotiorum assessed as inhibition of mycelial growth measured after 3 to 20 days by agar dilution method; assay type: functional, organism-based
[32] = system: Cercospora; assay: Fungicidal activity against Cercospora theae assessed as inhibition of mycelial growth measured after 3 to 20 days by agar dilution method; assay type: functional, organism-based
[33] = system: Plasmopara viticola; assay: Fungicidal activity against Plasmopara viticola on grape (Vitis vinifera, cv.Kousyu) assessed as downy mildew disease control at 200 ppm measured after 5 to 10 days; assay type: functional
[34] = system: Blumeria graminis f. sp. tritici; assay: Fungicidal activity against Blumeria graminis f. sp. tritici on wheat leaves assessed as rate of appressorium formation measured at 0.8 ppm after 76 hr; assay type: functional
[35] = system: Blumeria graminis f. sp. tritici; assay: Fungicidal activity against Blumeria graminis f. sp. tritici on wheat leaves assessed as rate of appressorium formation measured at 12.5 ppm after 76 hr; assay type: functional
[36] = system: Blumeria graminis f. sp. tritici; assay: Fungicidal activity against Blumeria graminis f. sp. tritici on wheat leaves assessed as rate of spore germination measured at 12.5 ppm after 3 hr (reference value: 22.5 +/- 7.6%); assay type: functional
[37] = system: Cercospora beticola; assay: Fungicidal activity against Cercospora beticola assessed as inhibition of mycelial growth measured after 3 to 20 days by agar dilution method; assay type: functional, organism-based
[38] = system: Monilinia fructicola; assay: Fungicidal activity against Monilinia fructicola assessed as number and shape of mitochondria measured by Transmission electron microscopy relative to untreated control; assay type: functional, organism-based
[39] = system: Botrytis squamosa; assay: Fungicidal activity against Botryotinia squamosa assessed as inhibition of mycelial growth measured after 3 to 20 days by agar dilution method; assay type: functional, organism-based
[40] = system: Trichoderma viride; assay: Fungicidal activity against Hypocrea rufa assessed as inhibition of mycelial growth measured after 3 to 20 days by agar dilution method; assay type: functional, organism-based
[41] = system: Blumeria graminis f. sp. tritici; assay: Fungicidal activity against Blumeria graminis f. sp. tritici on wheat leaves assessed as rate of spore germination measured at 12.5 ppm after 24 hr (reference value: 72.2 +/- 4.2%); assay type: functional
[42] = system: Pyricularia oryzae; assay: Fungicidal activity against Magnaporthe oryzae assessed as inhibition of mycelial growth measured after 3 to 20 days by agar dilution method; assay type: functional, organism-based

`O=C(Cc1ccccc1)N/C(=N\OCC1CC1)c1c(C(F)(F)F)ccc(F)c1F` [CYFLUFENAMID] was tested, and the EC50 [1] was over 100 ppm, the MIC [2] was under 1.6 µg/mL and the MIC [3] was under 1.6 µg/mL. For the same molecule, the MIC [4] was under 0.8 µg/mL, the Efficacy [5] was 0% and the EC50 [6] was 3 ppm. The EC50 [7] was over 100 ppm, the EC50 [8] was over 100 ppm and the Activity [9] was 0.3%. The EC50 [10] was over 100 ppm, the Efficacy [11] was 0% and the inhibition at 0.2 ppm [12] was 81.2%. It also gave an MIC [13] of under 1.6 µg/mL, an EC50 [14] of over 100 ppm and an EC50 [15] of over 100 ppm. The EC50 [16] was 1 ppm, the inhibition at 3.1 ppm [17] was 99.9% and the EC50 [18] was over 100 ppm. The inhibition at 0.8 ppm [19] was 96.9%, the inhibition at 0.2 ppm [20] was 77.6% and the MIC [21] was under 0.8 µg/mL. The Efficacy [22] was 6%, the inhibition at 3.1 ppm [23] was 100% and the inhibition at 3.1 ppm [24] was 99.4%. For the same molecule, the inhibition at 0.8 ppm [25] was 99.4%, the Activity [26] was 60.7% and the Activity [27] was “Active”. For the same molecule, the EC50 [28] was over 100 ppm, the Efficacy [29] was 100% and the Activity [30] was “Active”. It also gave an EC50 [31] of 1 ppm, an EC50 [32] of over 100 ppm and an Efficacy [33] of 0%. The inhibition at 0.8 ppm [34] was 96.4%, the inhibition at 12.5 ppm [35] was 100% and the Activity [36] was 19.8%. For the same molecule, the EC50 [37] was 0.3 ppm, the Activity [38] was “inactive” and the EC50 [39] was over 100 ppm. For the same molecule, the EC50 [40] was over 100 ppm, the Activity [41] was 61.5% and the EC50 [42] was 3 ppm.
